For assay [1], the system named is Pseudocercosporella herpotrichoides var. tritici. Description: Wheat True Eyespot In Vitro Assay (WES In Vitro). The class given is cell-based. Further details: key: 0: no inhibition of mycelial growth; 1: slight inhibition of mycelial growth; 2: moderate inhibition of mycelial growth; 3: strong inhibition of mycelial growth. To be noted: 3 days at 19° C. Here is the method: A) Pathogen/Inoculum Production--A mycelial transfer of Pseudocercosporella herpotrichoides var. tritici is placed onto potato dextrose agar plates and allowed to grow for 40 days at 20 ° C., without light. Five agar discs are taken from the actively growing culture and are placed equidistant, mycelial side down, onto a water agar plate, and incubated at 10 ° C. with 10 hours of fluorescent light per day. After 5 days of incubation, sporulation on the transferred discs begins, and plates are flooded with 3-5 mls sterile deionized water. One-half ml aliquots are taken from the resulting spore suspension and placed on new water agar plates. Spores are spread across plates using a bent glass rod and incubated at 10 ° C. with 10 hour fluorescent light periods per day. In 5-10 days, a lawn of spores is produced and can be "harvested".
B) Compound Preparation and Test Execution--200 μl of 1/4 strength potato dextrose broth is placed in each well of a 96 well microtiter plate. […] The commercial standard used is prochloraz at equivalent rates.
C) Inoculation/Incubation--50 μl of a 1×10^6 spores/ml suspension harvested using the method above is added to each well. The 96 well plates are incubated for 3 days at 19° C. in the dark.
(§1) D) Evaluation--After incubation, each well is visually assessed for growth inhibition on the following 0-3 scale:
(§2) 0=no inhibition of mycelial growth
(§3) 1=slight inhibition of mycelial growth
(§4) 2=moderate inhibition of mycelial growth
(§5) 3=strong inhibition of mycelial growth

For assay [2] the test system is unchanged. The assay is described as follows: Wheat True Eyespot Foliar Protectant Treatment (WES Prot). The class given is in vivo. The procedure:
A) Pathogen/Inoculum Production--Follows as per Example 4.
B) Host Propagation--Wheat seedlings, cv. Hart, are grown to the third leaf stage in a commercial soil preparation, "Metro Mix 200", amended with 100 gm/ft^3 slow release "Osmocote 14-14-1438 . A sufficient number of seeds are planted per pot (5 cm in diameter) in order to insure the production of 5 vigorous seedlings per pot. The plants are maintained in a growth chamber set at 21° C., 80% RH with a 12 hour photoperiod. Light intensity is set at 300 me/m^2 /sec.
C) Test Compound Preparation
1) Experimental compounds--Follows as per Example 1.
2) Controls and Standards--The commercial fungicide, prochloraz, applied at 20 and 5 ppm, is used as the standard for wheat eyespot control. Control treatments are sprayed only with the formulation solution.
D) Compound Application--Wheat plants are sprayed at the three leaf stage. The solution is foliarly applied to the basal stem area of the wheat using a Devilbiss Model 152 hand sprayer. The treated wheat is allowed to air dry at room temperature before being returned to a growth chamber. The growth chamber is set at 15° C., 85% RH and a 12 hour photoperiod. Light intensity is maintained at 300 me/m^2 /sec.
E) Inoculation/Incubation - The treated wheat plants are inoculated 24 hours after chemical treatment. Inoculation is done by spraying a 3×10^5 spores/ml suspension at the basal stem area of each plant. Approximately 1 ml of spore suspension is applied to each plant. Following inoculation, the basal stem area of the plants are covered with a 2-3 cm thick layer of fine vermiculite. The vermiculite is watered lightly and the plants returned to the growth room. The inoculated plants remain in the growth chamber for 4 weeks after which time they are evaluated for disease control.
F) Evaluation--Treatments are evaluated four weeks after inoculation. Disease assessment is based on the percent girdling of the stem base caused by an eyespot lesion. Five plants are rated per replicate. Phytotoxicity and growth effects are also noted at this time.
G) Data--All replicate data is recorded as a percent disease value. Treatment means are calculated and percent disease control is determined by the formula: (control mean--treatment mean)*100/control mean. The inoculated control treatment mean is used for this calculation. The percent protection values for the compounds of the present invention are as set out in the Table below.

The test system of assay [3] is Septoria nodorum. Description: Wheat Glume Blotch (WGB) In Vitro. The format is cell-based. On the set-up: key: 0: no inhibition of mycelial growth; 1: slight inhibition of mycelial growth; 2: moderate inhibition of mycelial growth; 3: strong inhibition of mycelial growth. To be noted: 4-6 days at 25° C. Here is the method: A) Pathogen/Inoculum Production--The wheat glume blotch fungus, Septoria nodorum, is cultured on yeast/malt agar at 22° C. and 12 hours fluorescent light. Several sterile loops full of mature pycnidia produced on a 7 day old culture plates are added to 30 mls of 1/4 strength potato dextrose broth. After 15 minutes the suspension is stirred, and adjusted to a concentration of 3×10^5 spores/mi.
B) Compound Preparation and Test Execution--200 μl of 1/4 strength potato dextrose broth is placed in each well of a 96 well microtiter plate. […] The commercial standard used is flusilazole, at equivalent rates.
C) Inoculation/Incubation--50 μl of a 3×10^5 spores/ml suspension obtained using the method above is added to each well. The 96-well plate is incubated for 4-6 days at 25° C., 12 hours fluorescent light.
as §1, §2, §3, §4, §5

The mark [4] stands for this setting: 20 ppm foliar protectant, * = averaged value.
The mark [5] stands for this setting: 100 ppm foliar protectant, * = averaged value.
Where [6] appears, read: 500 ppm foliar protectant, four weeks after inoculation.

With `C[C@@H]1CCC[C@H](c2ccccc2NC(=O)c2cn(C)nc2C(F)F)C1` (relative stereo) [Number 2, 1H-pyrazole-4-carboxamide, 3-(difluoromethyl)-1-methyl-N-[2-(-3-methylcyclohexyl)phenyl]-, cis-], the “WES In vitro growth inhibition 0-3 scale” value in assay [1] (0.1 ppm) is recorded as 1; in assay [1] (0.5 ppm) it was 2; in assay [1] (5.0 ppm), 3. In addition, the “WES Prot percent disease control” value is recorded as 12% in assay [2] (setting [4]) and 82% in assay [2] (setting [5]). In addition, the “WGB In Vitro growth inhibition 0-3 scale” value in assay [3] (0.1 ppm) was 0; in assay [3] (0.5 ppm), 1; in assay [3] (5.0 ppm) it was 2.

As for `C[C@H]1CCC[C@H](c2ccccc2NC(=O)c2cn(C)nc2C(F)F)C1` (relative stereo) [Number 3, 1H-pyrazole-4-carboxamide, 3-(difluoromethyl)-1-methyl-N-[2-(3-methylcyclohexyl)phenyl]-, trans-], the results for the “WES In vitro growth inhibition 0-3 scale” value in assay [1] (0.1 ppm), in assay [1] (0.5 ppm) and in assay [1] (5.0 ppm) were 1, 2 and 3, respectively. The results for the “WES Prot percent disease control” value in assay [2] (setting [4]) and in assay [2] (setting [5]) were 01% and 95%, respectively. In addition, the “WGB In Vitro growth inhibition 0-3 scale” value in assay [3] (0.1 ppm), in assay [3] (0.5 ppm) and in assay [3] (5.0 ppm) was 0 in each case.

With `Cn1cc(C(=O)Nc2ccccc2[C@@H]2CCC[C@@H](C(F)(F)F)C2)c(C(F)F)n1` (relative stereo) [Number 6], the “WES In vitro growth inhibition 0-3 scale” value amounted to 0 in assay [1] (0.1 ppm), 0 in assay [1] (0.5 ppm) and 2 in assay [1] (5.0 ppm). Also, the “WES Prot percent disease control” value in assay [2] (setting [5]) stood at 90%; in assay [2] (setting [6]), 100%. For the same compound, the “WGB In Vitro growth inhibition 0-3 scale” value in assay [3] (0.1 ppm) is listed as 0; in assay [3] (0.5 ppm) it was 0; in assay [3] (5.0 ppm), 1.

In the case of `CC[C@H]1CC[C@@H](c2ccccc2NC(=O)c2cn(C)nc2C(F)F)CC1` [Number 1, 1H-pyrazole-4-carboxamide, 3-(difluoromethyl)-N-[2-(4-ethylcyclohexyl)phenyl]-1-methyl-, cis-], the “WES In vitro growth inhibition 0-3 scale” value in assay [1] (0.1 ppm) is given as 0; in assay [1] (0.5 ppm) it was 3; in assay [1] (5.0 ppm) it was 3. Moreover, the results for the “WES Prot percent disease control” value in assay [2] (setting [4]), in assay [2] (setting [5]) and in assay [2] (setting [6]) were 29%, 79% and 100%, respectively. Besides, the figures for the “WGB In Vitro growth inhibition 0-3 scale” value in assay [3] (0.1 ppm), in assay [3] (0.5 ppm) and in assay [3] (5.0 ppm) were 0, 3 and 3, respectively.

Turning to `Cn1cc(C(=O)Nc2ccccc2[C@H]2CC[C@H](C)CC2)c(C(F)(F)F)n1` [Number 4, 1H-pyrazole-4-carboxamide, 1-methyl-N-[2-(4-methylcyclohexyl)phenyl]-3-(trifluoromethyl)-, trans-], the “WES In vitro growth inhibition 0-3 scale” value in assay [1] (0.1 ppm) was determined as 1; in assay [1] (0.5 ppm) it was 2; in assay [1] (5.0 ppm), 3. Further, the entries for the “WES Prot percent disease control” value in assay [2] (setting [4]), in assay [2] (setting [5]) and in assay [2] (setting [6]) were 54%, 98% and 100%, respectively. The “WGB In Vitro growth inhibition 0-3 scale” value in assay [3] (0.1 ppm) came out at 1; in assay [3] (0.5 ppm), 1; in assay [3] (5.0 ppm), 2.

Regarding `Cn1cc(C(=O)Nc2ccccc2C2CCC(C)(C)CC2)c(C(F)F)n1` [Number 5, 1H-pyrazole-4-carboxamide, 3-(difluoromethyl)-N-(2-(4,4-dimethylcyclohexyl)phenyl]-1-methyl-], the “WES In vitro growth inhibition 0-3 scale” value was determined as 1 in assay [1] (0.1 ppm), 3 in assay [1] (0.5 ppm) and 3 in assay [1] (5.0 ppm). The “WES Prot percent disease control” value was determined as 59% in assay [2] (setting [4]) and 99% in assay [2] (setting [5]). The “WGB In Vitro growth inhibition 0-3 scale” value in assay [3] (0.1 ppm) amounted to 0; in assay [3] (0.5 ppm), 2; in assay [3] (5.0 ppm), 2.

Source of the values: patent US5498624A, “Selected pyrazolyl derivatives” (Monsanto Company, priority 1995, dated 1996).
